Results: PMC13629022 (ACS Omega, 2026)
Entries after “also recorded” stand apart in the source; their conditions may differ. Read-outs that look alike come from different tables or passages of the source.

How the values were obtained:
[1] = tested on: murine macrophage-like J774.A1 cells; assay: Cytotoxicity to J774.A1 macrophages (Alamar Blue); conditions: concentrations up to 500 μM (compounds 7 and 13 up to 250 μM)
Experimental: Cells were incubated for 72 h at 37 °C in a 5% CO2 atmosphere, as previously described. They were then stimulated with LPS (500 ng/mL, Sigma Chemical Co., St. Louis, MO, USA) and IFN-γ (5 ng/mL, Sigma). Compounds were added to the medium at eight concentrations ranging from 1.9 to 500 μM, in triplicate, and incubated for 24 h. Subsequently, 20 μL per well of Alamar Blue (Invitrogen, Carlsbad, CA, USA) was added to the plates for 6 h. Compounds 7, 11, and 13 were evaluated only up to a maximum concentration of 250 μM due to the limited amount of purified material available for testing. Colorimetric readings were performed at 570 and 600 nm. Triton X-100 (5%) was used as the positive control.

[2] = tested on: IL-6 production by stimulated J774.A1 macrophages; assay: IL-6 production by LPS + IFN-γ stimulated J774.A1 macrophages (ELISA); assay type: cell-based, murine; conditions: compounds at 62.5 μM, Dexa 40 μM, 24 h, vs stimulated untreated cells, p < 0.05
Experimental: (§1) Cells were then stimulated with LPS (500 ng/mL) and IFN-γ (5 ng/mL) in the presence of either the test compounds at different concentrations (3.9–250 μM), the medium alone, or dexamethasone (40 μM, reference drug) and further incubated at 37 °C. Cell-free supernatants were collected 24 h after incubation for IL-1β, IL-6, and nitrite quantification. Cytokine concentrations in the supernatants of J774.A1 cultures were determined by enzyme-linked immunosorbent assay (ELISA) using the DuoSet kit (R&D Systems, Minneapolis, MN, USA), according to the manufacturer’s instructions. Results were expressed as picograms per milliliter (pg/mL) of IL-1β or IL-6. Quantification of nitrite as an indicator of nitric oxide production was performed using the Griess method. Three independent experiments were performed. −

[3] = tested on: nitric oxide production by stimulated J774.A1 macrophages; assay: Nitric oxide production by LPS + IFN-γ stimulated J774.A1 macrophages (nitrite, Griess method); assay type: cell-based, murine; conditions: for IC50 / Emax: Mus musculus; for Emax: read-out: efficacy: maximum effect (% of the maximum possible effect), inhibition of NO production, J774.A1 macrophages stimulated with LPS + IFN-γ, 24 h
Experimental: as §1, with “For cytokine and nitric oxide evaluations, J774.A1 cells were seeded in 96-well tissue culture plates at 2 × 10^5 cells per well in DMEM supplemented with 10% FBS and 50 μg/mL gentamicin and incubated for 2 h at 37 °C in a 5% CO2 atmosphere, as previously described. Cells” for “Cells”

[4] = tested on: IL-1β production by stimulated J774.A1 macrophages; assay: IL-1β production by LPS + IFN-γ stimulated J774.A1 macrophages (ELISA); assay type: cell-based, murine; conditions: compounds at 62.5 μM, Dexa 40 μM, 24 h, vs stimulated untreated cells, p < 0.05
Experimental: as §1

[5] = J774.A1, 24 h, read-out: IC50, half maximal inhibitory concentration, NO production, J774.A1 macrophages stimulated with LPS (500 ng/mL) + IFN-γ (5 ng/mL), 24 h, nitrite by Griess
[6] = J774.A1, read-out: IC50 (in Figure 8 panels), nitric oxide production, Figure 8, no unit in the boxes, μM only in axis labels, LPS + IFN-γ stimulated J774.A1

| SMILES | cytotoxic effects in J774 macrophages (in words) [1] | production of IL-6 (in words) [2] | IC50 [3, 5] [µM] | Emax ([3]; J774.A1, 24 h) [%] | production of IL-1β (in words) [4] | efficacy: maximum effect (% of the maximum possible effect), inhibition of NO production ([3]; J774.A1 macrophages stimulated with LPS + IFN-γ, 24 h) [%] | IC50 [3, 6] [µM] |
| --- | --- | --- | --- | --- | --- | --- | --- |
| COC1CC(OC2CCC3(C)C(=CCC4(O)C3CC(OC(=O)C=Cc3ccccc3)C3(C)C(O)(C(C)OC(=O)c5cccnc5)CCC43O)C2)OC(C)C1OC1CC(OC)C(OC2OC(C)C(O)C(OC)C2O)C(C)O1 [Compound 1, 12-O-cinnamoyl-20-O-nicotinoyl-(20R)-sarcostin-3-O-β-D-6-deoxy-3-O-methyl-allopyranosyl-(1 → 4)-β-D-oleandropyranosyl-(1 → 4)-β-D-cymaropyranoside] | did not induce cytotoxic effects | comparable to those of Dexa | 24.5 | > 70 | significant reduction; also recorded: comparable to those of Dexa |  |  |
| COC1CC(OC2CCC3(C)C(CCC4(O)C3CC(OC(=O)C=Cc3ccccc3)C3(C)C(O)(C(C)OC(=O)c5cccnc5)CCC43O)C2)OC(C)C1OC1CC(OC)C(OC2OC(C)C(O)C(OC)C2O)C(C)O1 [Compound 2, 12-O-cinnamoyl-20-O-nicotinoyl-(20R)-5,6-dihydrosarcostin-3-O-β-D-6-deoxy-3-O-methyl-allopyranosyl-(1 → 4)-β-D-oleandropyranosyl-(1 → 4)-β-D-cymaropyranoside] | did not induce cytotoxic effects | comparable to those of Dexa | 32.1 | > 70 | significant reduction; also recorded: comparable to those of Dexa |  |  |
| COC1CC(OC2C(C)OC(OC3CCC4(C)C(CCC5(O)C4CC(OC(=O)C=Cc4ccccc4)C4(C)C(O)(C(C)OC(=O)c6cccnc6)CCC54O)C3)CC2OC(C)=O)OC(C)C1OC1OC(C)C(O)C(OC)C1O [Compound 3, 12-O-cinnamoyl-20-O-nicotinoyl-(20R)-5,6-dihydrosarcostin-3-O-β-D-6-deoxy-3-O-methyl-allopyranosyl-(1 → 4)-β-D-oleandropyranosyl-(1 → 4)-β-D-3′-O-acetyl-cymaropyranoside] | did not induce cytotoxic effects | comparable to those of Dexa | 29.1 | 71.8 | significant reduction; also recorded: comparable to those of Dexa | 68.0 | 29.1 |
| COC1CC(OC2CCC3(C)C(CCC4(O)C3CC(OC(=O)C=Cc3ccccc3)C3(C)C(O)(C(C)OC(=O)c5ccccc5)CCC43O)C2)OC(C)C1OC1CC(OC)C(OC2OC(C)C(O)C(OC)C2O)C(C)O1 [Compound 4, 12-O-cinnamoyl-20-O-benzoyl-(20R)-5,6-dihydrosarcostin-3-O-β-D-6-deoxy-3-O-methyl-allopyranosyl-(1 → 4)-β-D-oleandropyranosyl-(1 → 4)-β-D-cymaropyranoside] | did not induce cytotoxic effects | reduced IL-1β production but not IL-6 | > 100 | < 50 | significant reduction |  |  |
| COC1CC(OC2CCC3(C)C(CCC4C3CC(OC(=O)C=Cc3ccccc3)C3(C)C(C(C)O)CCC43O)C2)OC(C)C1OC1CC(OC)C(OC2OC(C)C(O)C(OC)C2O)C(C)O1 [Compound 10, 12-O-cinnamoyl-(20S)-5,6,8,17-tetrahydrosarcostin-3-O-β-D-6-deoxy-3-O-methyl-allopyranosyl-(1 → 4)-β-D-oleandropyranosyl-(1 → 4)-β-D-cymaropyranoside] | most cytotoxic | significantly reducing; also recorded: comparable to those of Dexa | 17.5 | 66.1 | significantly reducing; also recorded: significant reduction; also recorded: comparable to those of Dexa |  | 17.5 |
| COC1CC(OC2CCC3(C)C(CCC4(O)C3CC(OC(=O)C=Cc3ccccc3)C3(C)C(C(C)O)CCC43O)C2)OC(C)C1OC1CC(OC)C(OC2OC(C)C(O)C(OC)C2O)C(C)O1 [Compound 15, 12-O-cinnamoyl-(20S)-5,6,17-trihydrosarcostin-3-O-β-D-6-deoxy-3-O-methyl-allopyranosyl-(1 → 4)-β-D-oleandropyranosyl-(1 → 4)-β-D-cymaropyranoside] | most cytotoxic |  | 33.7 | 62.9 | significant reduction |  | 33.8 |
| COC1CC(OC2CCC3(C)C(CCC4(O)C3CC(OC(C)=O)C3(C)C(C(C)O)CCC43O)C2)OC(C)C1OC1CC(OC)C(OC2OC(C)C(O)C(OC)C2O)C(C)O1 [Compound 16, 12-O-acetyl-(20S)-5,6,17-trihydrosarcostin-3-O-β-D-6-deoxy-3-O-methyl-allopyranosyl-(1 → 4)-β-D-oleandropyranosyl-(1 → 4)-β-D-cymaropyranoside] | only mild cytotoxicity at the highest concentrations | reduced IL-1β production but not IL-6 | 40 to 70 | < 50 | significant reduction |  |  |
| COC1CC(OC2C(C)OC(OC3CCC4(C)C(CCC5(O)C4CC(OC(C)=O)C4(C)C(C(C)OC(=O)c6ccccc6)CCC54O)C3)CC2OC(C)=O)OC(C)C1OC1OC(C)C(O)C(OC)C1O [Compound 17, 12-O-acetyl-20-O-benzoyl-(20R)-5,6,17-trihydrosarcostin-3-O-β-D-6-deoxy-3-O-methyl-allopyranosyl-(1 → 4)-β-D-oleandropyranosyl-(1 → 4)-β-D-3′-O-acetyl-cymaropyranoside] | only mild cytotoxicity at the highest concentrations |  | 46.3 | < 50 | significant reduction |  | 46.3 |
